Laboratory results: US20080261994A1, “CYCLOPROPANE COMPOUNDS AND PHARMACEUTICAL USE THEREOF” (Japan Tobacco Inc., priority 2003, published 2008)
Read-outs that look alike come from different tables or passages of the source.

Columns and labels:
Assay type in all cases: biochemical
aggrecanase-1 = target: T1, aggrecanase-1 (Homo sapiens, UniProt O75173); test: Aggrecanase-1 inhibitory action (Particle Assay, GAG release from aggrecan-containing polyacrylamide particles)
T1 sequence (O75173 213-837): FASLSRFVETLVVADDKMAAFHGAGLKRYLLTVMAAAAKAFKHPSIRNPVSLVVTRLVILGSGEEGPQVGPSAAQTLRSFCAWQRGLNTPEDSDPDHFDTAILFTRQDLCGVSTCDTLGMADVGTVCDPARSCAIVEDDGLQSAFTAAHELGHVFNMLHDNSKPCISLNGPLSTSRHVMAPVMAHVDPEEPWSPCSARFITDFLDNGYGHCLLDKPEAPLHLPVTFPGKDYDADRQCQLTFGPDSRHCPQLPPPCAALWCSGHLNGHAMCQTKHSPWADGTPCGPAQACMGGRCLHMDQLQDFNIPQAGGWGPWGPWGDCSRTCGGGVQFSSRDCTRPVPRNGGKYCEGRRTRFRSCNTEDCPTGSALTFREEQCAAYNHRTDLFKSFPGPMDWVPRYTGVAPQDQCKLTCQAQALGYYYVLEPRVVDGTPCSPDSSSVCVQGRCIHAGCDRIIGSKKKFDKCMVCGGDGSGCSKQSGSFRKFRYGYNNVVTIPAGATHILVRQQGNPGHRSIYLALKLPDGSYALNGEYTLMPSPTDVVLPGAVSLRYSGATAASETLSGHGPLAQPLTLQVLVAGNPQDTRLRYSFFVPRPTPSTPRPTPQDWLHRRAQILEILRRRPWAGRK
Procedure, shortened: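 Enzyme and compound incubated with aggrecan-containing polyacrylamide particles in Tris-HCl buffer at 37° C for 15 h. Released GAG in supernatant measured with 1,9-dimethylmethylene blue at 595 nm against chondroitin sulfate standard; % inhibition from enzyme-free and inhibitor-free wells, reported as TC50 (μM).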

MMP-1 = target: T2, MMP-1 (Homo sapiens, UniProt P03956); test: MMP-1 inhibitory action (Type I collagen Activity Measurement kit, FITC-labeled collagen type I)
T2 sequence (P03956 100-469): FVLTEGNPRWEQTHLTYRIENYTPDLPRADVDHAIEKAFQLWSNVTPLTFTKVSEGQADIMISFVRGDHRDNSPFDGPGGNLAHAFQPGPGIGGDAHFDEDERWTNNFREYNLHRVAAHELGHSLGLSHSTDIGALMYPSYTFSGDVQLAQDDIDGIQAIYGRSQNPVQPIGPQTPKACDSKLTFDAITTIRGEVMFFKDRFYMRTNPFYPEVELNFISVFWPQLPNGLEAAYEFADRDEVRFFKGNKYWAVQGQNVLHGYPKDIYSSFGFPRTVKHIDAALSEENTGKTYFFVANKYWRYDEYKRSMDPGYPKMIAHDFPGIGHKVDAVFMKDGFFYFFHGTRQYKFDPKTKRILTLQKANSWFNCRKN

Recombinant Human MMP-13 = target: T3, Recombinant Human MMP-13 (Homo sapiens, UniProt P45452); test: MMP-13 inhibitory activity (MMP-13 specific fluorescent substrate with quencher)
T3 construct: purchased R&D systems 511-MM
Procedure, shortened: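 Recombinant human MMP-13 with test compound, reaction started with quenched fluorogenic peptide 7-MCA-Pro-CHA-Gly-NVal-His-Ala-DPA in Tris-HCl buffer, 1 h at 25 °C, stopped with acetic acid. Fluorescence at Ex 325/Em 405 nm; % inhibition versus enzyme-free and inhibitor-free wells, reported as IC50 (μM).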

[1] = Experimental Example 1, read-out: IC50 AG1
[2] = Experimental Example 2, read-out: IC50 MMP1
[3] = Experimental Example 3, read-out: IC50 MMP13
[4] = aggrecanase-1 inhibitory action, read-out: IC50 AG1 (Experimental Example 1)
[5] = MMP-1 inhibitory action, FITC-labeled collagen type I, 37° C. for 3 hr, read-out: IC50 MMP1 (Experimental Example 2)
[6] = Recombinant Human MMP-13, fluorescent substrate, 25° C. for 1 h, read-out: IC50 MMP13 (Experimental Example 3)

## CC1[C@](C)(c2ccccc2)[C@]1(NS(=O)(=O)c1ccc(-c2cc(C(F)(F)F)on2)s1)C(=O)O (stereo partly drawn) [Example 2-623]
aggrecanase-1; [1]
  IC50: < 100 nM
MMP-1; [2]
  IC50: < 1000 nM
Recombinant Human MMP-13; [3]
  IC50: < 100 nM

## O=C(c1ccc(Cl)cc1)N1CCN(S(=O)(=O)NC2(C(=O)O)CC2c2ccccc2)CC1 (stereo not drawn) [Example 2-159]
aggrecanase-1; [4]
  IC50: ≥ 10000 nM
MMP-1; [5]
  IC50: ≥ 10000 nM
Recombinant Human MMP-13; [6]
  IC50: ≥ 10000 nM

## O=C(O)C1(NS(=O)(=O)N2CCC(Oc3ccc(C(F)(F)F)cc3)CC2)CC1c1ccccc1 (stereo not drawn) [Example 2-144]
aggrecanase-1; [4]
  IC50: ≥ 10000 nM
MMP-1; [5]
  IC50: ≥ 10000 nM
Recombinant Human MMP-13; [6]
  IC50: ≥ 1000 nM

## COC(=O)c1cccc(C2CC2(NS(=O)(=O)c2ccc(-c3ccc(Cl)cc3)s2)C(=O)O)c1 (stereo not drawn) [Example 2-184]
aggrecanase-1; [4]
  IC50: < 100 nM
MMP-1; [5]
  IC50: ≥ 1000 nM
Recombinant Human MMP-13; [6]
  IC50: < 1000 nM

## CC1(c2ccc(F)cc2)CC1(NS(=O)(=O)c1ccc(-c2cc(C(F)(F)F)on2)s1)C(=O)O (stereo not drawn) [Example 2-340]
aggrecanase-1; [1]
  IC50: < 1000 nM
MMP-1; [2]
  IC50: ≥ 10000 nM
Recombinant Human MMP-13; [3]
  IC50: ≥ 1000 nM

## C[C@]1(c2ccccc2)C[C@@]1(NS(=O)(=O)c1ccc(-c2ccc(Cl)cc2Cl)s1)C(=O)O [Example 2-566]
aggrecanase-1; [1]
  IC50: < 1000 nM
MMP-1; [2]
  IC50: ≥ 1000 nM
Recombinant Human MMP-13; [3]
  IC50: ≥ 1000 nM

## C[C@]1(c2ccccc2)C[C@@]1(NS(=O)(=O)c1ccc(-c2ccc(Cl)cc2)s1)C(=O)O [Example 2-101]
aggrecanase-1; [4]
  IC50: < 100 nM
MMP-1; [5]
  IC50: ≥ 1000 nM
Recombinant Human MMP-13; [6]
  IC50: < 1000 nM

## O=C(Cc1ccccc1C1CC1(NS(=O)(=O)c1ccc(-c2ccc(Cl)cc2)s1)C(=O)O)N1CCOCC1 (stereo not drawn) [Example 2-194]
aggrecanase-1; [4]
  IC50: < 1000 nM
MMP-1; [5]
  IC50: ≥ 10000 nM
Recombinant Human MMP-13; [6]
  IC50: < 1000 nM

## CCCC#Cc1ccc(S(=O)(=O)N[C@@]2(C(=O)O)C[C@@H]2c2ccccc2)s1 [Example 2-133]
aggrecanase-1; [4]
  IC50: ≥ 10000 nM
MMP-1; [5]
  IC50: ≥ 10000 nM
Recombinant Human MMP-13; [6]
  IC50: < 1000 nM

## O=C(O)C1(NS(=O)(=O)c2ccc(-c3ccc(Cl)cc3)s2)CC1c1cccc(OCc2cccnc2)c1 (stereo not drawn) [Example 1-107]
aggrecanase-1; [4]
  IC50: < 100 nM
MMP-1; [5]
  IC50: ≥ 1000 nM
Recombinant Human MMP-13; [6]
  IC50: < 100 nM

## O=C(O)CCc1cccc(C2CC2(NS(=O)(=O)c2ccc(-c3ccc(Cl)cc3)s2)C(=O)O)c1 (stereo not drawn) [Example 2-180]
aggrecanase-1; [4]
  IC50: < 100 nM
MMP-1; [5]
  IC50: ≥ 10000 nM
Recombinant Human MMP-13; [6]
  IC50: < 100 nM

## CC1[C@H](c2ccccc2)[C@]1(NS(=O)(=O)c1ccc(-n2cc(C(=O)O)cn2)s1)C(=O)O (stereo partly drawn) [Example 2-522]
aggrecanase-1; [1]
  IC50: ≥ 1000 nM
MMP-1; [2]
  IC50: ≥ 1000 nM
Recombinant Human MMP-13; [3]
  IC50: < 100 nM

## O=C(Cc1ccc([C@@H]2C[C@]2(NS(=O)(=O)c2ccc(-c3cc(C(F)(F)F)on3)s2)C(=O)O)cc1)N1CCOCC1 [Example 2-291]
aggrecanase-1; [1]
  IC50: < 100 nM
MMP-1; [2]
  IC50: < 1000 nM
Recombinant Human MMP-13; [3]
  IC50: < 100 nM

## Cc1ccc(-c2ccc(S(=O)(=O)NC3(C(=O)O)CC3c3ccccc3)s2)cc1 (stereo not drawn) [Example 2-20]
aggrecanase-1; [4]
  IC50: < 1000 nM
MMP-1; [5]
  IC50: ≥ 1000 nM
Recombinant Human MMP-13; [6]
  IC50: < 100 nM

## CC1(C)COC(c2ccccc2C2CC2(NS(=O)(=O)c2ccc(-c3ccc(Cl)cc3)s2)C(=O)O)=N1 (stereo not drawn) [Example 2-77]
aggrecanase-1; [4]
  IC50: < 100 nM
MMP-1; [5]
  IC50: ≥ 1000 nM
Recombinant Human MMP-13; [6]
  IC50: < 1000 nM

## O=C(O)C1(NS(=O)(=O)c2ccc(-c3ccc(Cl)cc3)s2)CC1C1CCCCC1 (stereo not drawn) [Example 2-41]
aggrecanase-1; [4]
  IC50: < 1000 nM
MMP-1; [5]
  IC50: ≥ 10000 nM
Recombinant Human MMP-13; [6]
  IC50: < 1000 nM

## CC(C)C(=O)NCCCC1(c2ccccc2)CC1(NS(=O)(=O)c1ccc(-c2ccc(Cl)cc2)s1)C(=O)O (stereo not drawn) [Example 2-319]
aggrecanase-1; [1]
  IC50: < 100 nM
MMP-1; [2]
  IC50: ≥ 1000 nM
Recombinant Human MMP-13; [3]
  IC50: < 100 nM

## O=C(NC1CC1)c1ccc(S(=O)(=O)NC2(C(=O)O)CC2c2ccccc2)s1 (stereo not drawn) [Example 2-105]
aggrecanase-1; [4]
  IC50: ≥ 10000 nM
MMP-1; [5]
  IC50: ≥ 10000 nM
Recombinant Human MMP-13; [6]
  IC50: ≥ 10000 nM

## O=C(OCCc1ccccc1C1CC1(NS(=O)(=O)c1ccc(-c2cc(C(F)(F)F)on2)s1)C(=O)O)N1CCOCC1 (stereo not drawn) [Example 2-242]
aggrecanase-1; [4]
  IC50: < 100 nM
MMP-1; [5]
  IC50: ≥ 1000 nM
Recombinant Human MMP-13; [6]
  IC50: < 100 nM

## CN(C)c1cc(-c2ccc(S(=O)(=O)N[C@@]3(C(=O)O)C[C@]3(C)c3ccccc3)s2)no1 [Example 2-423]
aggrecanase-1; [1]
  IC50: < 1000 nM
MMP-1; [2]
  IC50: < 1000 nM
Recombinant Human MMP-13; [3]
  IC50: < 100 nM

## O=C(O)C1(NS(=O)(=O)N2CCN(c3nc4ccccc4s3)CC2)CC1c1ccccc1 (stereo not drawn) [Example 2-157]
aggrecanase-1; [4]
  IC50: ≥ 10000 nM
MMP-1; [5]
  IC50: ≥ 10000 nM
Recombinant Human MMP-13; [6]
  IC50: ≥ 1000 nM

## CC1(c2cccc(S(C)(=O)=O)c2)CC1(NS(=O)(=O)c1ccc(-c2cc(C(F)(F)F)on2)s1)C(=O)O (stereo not drawn) [Example 2-614]
aggrecanase-1; [1]
  IC50: < 100 nM
MMP-1; [2]
  IC50: < 1000 nM
Recombinant Human MMP-13; [3]
  IC50: ≥ 1000 nM

## O=C(Nc1cccc(C2CC2(NS(=O)(=O)c2ccc(-c3ccc(Cl)cc3)cc2)C(=O)O)c1)c1cccnc1 (stereo not drawn) [Example 1-64]
aggrecanase-1; [4]
  IC50: < 1000 nM
MMP-1; [5]
  IC50: ≥ 1000 nM
Recombinant Human MMP-13; [6]
  IC50: < 100 nM

## CNC(=O)CCc1ccc([C@H]2C[C@@]2(NS(=O)(=O)c2ccc(-c3cc(C(F)(F)F)on3)s2)C(=O)O)cc1 [Example 2-281]
aggrecanase-1; [1]
  IC50: < 100 nM
MMP-1; [2]
  IC50: < 1000 nM
Recombinant Human MMP-13; [3]
  IC50: < 100 nM

## CCOC(=O)CSCC1(c2ccccc2)CC1(NS(=O)(=O)c1ccc(-c2ccc(Cl)cc2)s1)C(=O)O (stereo not drawn) [Example 2-352]
aggrecanase-1; [1]
  IC50: < 100 nM
MMP-1; [2]
  IC50: ≥ 1000 nM
Recombinant Human MMP-13; [3]
  IC50: < 100 nM

## CC1(c2cccnc2)CC1(NS(=O)(=O)c1ccc(-c2cc(C(F)(F)F)on2)s1)C(=O)O (stereo not drawn) [Example 2-617]
aggrecanase-1; [1]
  IC50: < 1000 nM
MMP-1; [2]
  IC50: ≥ 1000 nM
Recombinant Human MMP-13; [3]
  IC50: ≥ 1000 nM

## O=C(O)C1(NS(=O)(=O)c2ccc(-c3ccc(Cl)cc3)cc2)CC1c1cccc(OCCO)c1 (stereo not drawn) [Example 1-66]
aggrecanase-1; [4]
  IC50: < 1000 nM
MMP-1; [5]
  IC50: ≥ 1000 nM
Recombinant Human MMP-13; [6]
  IC50: < 100 nM

## CCC1CC1(NS(=O)(=O)c1ccc(-c2ccc(Cl)cc2)s1)C(=O)O (stereo not drawn) [Example 2-48]
aggrecanase-1; [4]
  IC50: < 1000 nM
MMP-1; [5]
  IC50: ≥ 10000 nM
Recombinant Human MMP-13; [6]
  IC50: ≥ 1000 nM

## COc1ccc(N2CCN(S(=O)(=O)NC3(C(=O)O)CC3c3ccccc3)CC2)cc1 (stereo not drawn) [Example 2-64]
aggrecanase-1; [4]
  IC50: ≥ 10000 nM
MMP-1; [5]
  IC50: ≥ 10000 nM
Recombinant Human MMP-13; [6]
  IC50: ≥ 1000 nM

## CN(C)C(=O)CSCC1(c2ccccc2)CC1(NS(=O)(=O)c1ccc(-c2ccc(Cl)cc2)s1)C(=O)O (stereo not drawn) [Example 2-357]
aggrecanase-1; [1]
  IC50: < 100 nM
MMP-1; [2]
  IC50: ≥ 1000 nM
Recombinant Human MMP-13; [3]
  IC50: < 100 nM

## CC1CCC(N2CCN(S(=O)(=O)N[C@@]3(C(=O)O)C(C)[C@@H]3c3ccccc3)CC2)CC1 (stereo partly drawn) [Example 2-442]
aggrecanase-1; [1]
  IC50: ≥ 1000 nM
MMP-1; [2]
  IC50: ≥ 10000 nM
Recombinant Human MMP-13; [3]
  IC50: ≥ 1000 nM
